Data from PMC11066877, “Development and Characterization of Novel FAP-Targeted Theranostic Pairs: A Bench-to-Bedside Study” (Research, 2023).
Like-named read-outs stand apart in the source and are kept apart here.

Tests used:
[1] = Safety and biodistribution of [68Ga]Ga-DOTA-FD1 in healthy volunteers and patients; type: in vivo, human
Protocol: This clinical trial received ethical approval from the institutional review board of The First Affiliated Hospital of Xiamen University and has been registered at ClinicalTrials.gov (NCT04849247). All healthy volunteers (n = 3) and patients (n = 6) provided written informed consent before participation. There was no need for any particular preparation for [^68Ga]Ga-DOTA-FD1 PET/CT. Each participant was administered a dose of [^68Ga]Ga-DOTA-FD1 at a rate of 3.0 to 3.7 MBq/kg. Adverse events were under observation for 4 h after the injection of [^68Ga]Ga-DOTA-FD1. A hybrid PET/CT system (Discovery MI, GE Healthcare, Milwaukee, WI, USA) was used to perform static PET/CT imaging after 60 min of injection. PET/CT scan was conducted from the head region to the upper thighs (for [^68Ga]Ga-DOTA-FD1 PET/CT). For the CT scan, the parameters utilized were 110 kV, 80 mA, and a slice thickness measuring 3.75 mm. The obtained data were transferred to the Advantage Workstation (version AW 4.7, GE Healthcare). The Bayesian penalized likelihood reconstruction algorithm (Q.clear, GE Healthcare) was utilized for image reconstruction, employing a penalization factor (beta) of 500. […] In terms of quantitative assessment, the maximum standardized uptake value (SUVmax) and the mean SUV (SUVmean) were employed to quantify the uptake of the radiopharmaceutical in both normal organs and tumor tissues.

[2] = microPET/CT imaging, ROI analysis, Panc-02 tumor models; type: in vivo, mice; details: C57BL/6, mouse, intravenous, 3 MBq, 1 h after tracer injection
Protocol: (§1) A human pancreatic cancer cell line BxPC-3 and a murine pancreatic cancer cell Panc-02 were obtained from the American Type Culture Collection. The pancreatic cancer cell line T3M-4 was purchased by MeisenCTCC (Zhejiang, China). BxPC-3 and T3M-4 cell lines were grown in RPMI 1640 medium (Shanghai BasalMedia Technologies Co., LTD.) containing 10% FBS (GE Healthcare, Chicago, IL, USA) and 1% penicillin–streptomycin solution (Invitrogen). To culture the Panc-02 cell line, a medium called Dulbecco’s modified Eagle medium from Shanghai BasalMedia Technologies Co., LTD. was used, which consisted of 10% FBS. The cell line HT-1080 was grown in MEM medium (Shanghai BasalMedia Technologies Co., LTD.) supplemented with 10% FBS, 1% penicillin-streptomycin solution, and 1% nonessential amino acids (NEAA-11140050; Gibco). A human fibrosarcoma cell line was stably transfected with FAP (HT1080-FAP) and cultured, as we previously described. All cell lines were cultured in a humid incubator with 5% CO2 at a temperature of 37 °C. Approval was granted by the Institutional Animal Care and Use Committee (Renji Hospital, School of Medicine, Shanghai Jiao Tong University) for all experimental protocols and procedures related to animal care. Panc-02 cells were implanted by subcutaneous injection of 5 × 10^6 tumor cells suspended in 100 μl PBS and matrigel matrix (Corning) with equal volume into the upper limb flank of C57BL/6 mice (Shanghai Sheng Chang Biotechnology Co., Ltd.). Four- to 6-week-old thymus-free nude mice (GemPharmatech) were subcutaneously inoculated with BxPC-3, T3M-4, HT-1080, and HT1080-FAP cells (5 × 10^6 in 100 μl of PBS mixing with 100 μl matrigel matrix) in the right shoulder. […]
(§2) MicroPET imaging was performed on isoflurane-anesthetized mice injected intravenously via the lateral tail vein with around 3 MBq (2.5 nmol) of the radioligand at certain times. […] The information was analyzed using OsiriX Lite software (Pixmeo SARL) and Inveon Research Workplace (Siemens Preclinical Solutions). […]

[3] = [68Ga]Ga-DOTA-FD1 PET/CT imaging in tumor patients; type: in vivo, human; details: human
Protocol: (§3) This clinical trial received ethical approval from the institutional review board of The First Affiliated Hospital of Xiamen University and has been registered at ClinicalTrials.gov (NCT04849247). All healthy volunteers (n = 3) and patients (n = 6) provided written informed consent before participation. There was no need for any particular preparation for [^68Ga]Ga-DOTA-FD1 PET/CT. Each participant was administered a dose of [^68Ga]Ga-DOTA-FD1 at a rate of 3.0 to 3.7 MBq/kg. Adverse events were under observation for 4 h after the injection of [^68Ga]Ga-DOTA-FD1. A hybrid PET/CT system (Discovery MI, GE Healthcare, Milwaukee, WI, USA) was used to perform static PET/CT imaging after 60 min of injection. PET/CT scan was conducted from the head region to the upper thighs (for [^68Ga]Ga-DOTA-FD1 PET/CT). For the CT scan, the parameters utilized were 110 kV, 80 mA, and a slice thickness measuring 3.75 mm. The obtained data were transferred to the Advantage Workstation (version AW 4.7, GE Healthcare). The Bayesian penalized likelihood reconstruction algorithm (Q.clear, GE Healthcare) was utilized for image reconstruction, employing a penalization factor (beta) of 500. For tumor staging/restaging, a total of 6 patients received paired PET/CT imaging using [^68Ga]Ga-DOTA-FD1. In terms of quantitative assessment, the maximum standardized uptake value (SUVmax) and the mean SUV (SUVmean) were employed to quantify the uptake of the radiopharmaceutical in both normal organs and tumor tissues.

[4] = test system: tumor lesions of patients; assay: [68Ga]Ga-DOTA-FD1 PET/CT imaging in tumor patients; type: in vivo, human; details: for Lymph node metastases Median SUVmax (range) / Primary tumor Median SUVmax: initial staging
Protocol: as §3

[5] = Ex vivo biodistribution after imaging, HT1080-FAP tumor models; type: in vivo, mice; details: nude (thymus-free), mouse, intravenous, total radioactivity
Protocol: (§4) A human pancreatic cancer cell line BxPC-3 and a murine pancreatic cancer cell Panc-02 were obtained from the American Type Culture Collection. The pancreatic cancer cell line T3M-4 was purchased by MeisenCTCC (Zhejiang, China). BxPC-3 and T3M-4 cell lines were grown in RPMI 1640 medium (Shanghai BasalMedia Technologies Co., LTD.) containing 10% FBS (GE Healthcare, Chicago, IL, USA) and 1% penicillin–streptomycin solution (Invitrogen). To culture the Panc-02 cell line, a medium called Dulbecco’s modified Eagle medium from Shanghai BasalMedia Technologies Co., LTD. was used, which consisted of 10% FBS. The cell line HT-1080 was grown in MEM medium (Shanghai BasalMedia Technologies Co., LTD.) supplemented with 10% FBS, 1% penicillin-streptomycin solution, and 1% nonessential amino acids (NEAA-11140050; Gibco). A human fibrosarcoma cell line was stably transfected with FAP (HT1080-FAP) and cultured, as we previously described. All cell lines were cultured in a humid incubator with 5% CO2 at a temperature of 37 °C. Approval was granted by the Institutional Animal Care and Use Committee (Renji Hospital, School of Medicine, Shanghai Jiao Tong University) for all experimental protocols and procedures related to animal care. Panc-02 cells were implanted by subcutaneous injection of 5 × 10^6 tumor cells suspended in 100 μl PBS and matrigel matrix (Corning) with equal volume into the upper limb flank of C57BL/6 mice (Shanghai Sheng Chang Biotechnology Co., Ltd.). Four- to 6-week-old thymus-free nude mice (GemPharmatech) were subcutaneously inoculated with BxPC-3, T3M-4, HT-1080, and HT1080-FAP cells (5 × 10^6 in 100 μl of PBS mixing with 100 μl matrigel matrix) in the right shoulder. Follow-up microPET/CT imaging and ex vivo biodistribution experiments were performed when the tumor diameter reached 8 to 9 mm.
After imaging collection and image reconstruction, samples from euthanized experimental mice, including blood and multiple significant organs, were harvested and weighed. The radioactivity in each collected tissue was counted using an automated gamma counter (Wizard 2480, PerkinElmer) and the accumulation of radioactivity in different tissues and organs was quantified and expressed as %ID/g (mean ± SD). [^177Lu]Lu-DOTA-FD1 (~1.11 MBq, n = 3), [^177Lu]Lu-DOTA-FD2 (~1.11 MBq, n = 3), and [^177Lu]Lu-DOTA-FD3 (~1.11 MBq, n = 3) were injected into the tail vein of free nude mice at 6 h, 24 h, and 24 h for ex vivo biodistribution to verify the circulation time of the 3 probes in vivo. Biodistribution data from tumor-bearing mice injected with [^177Lu]Lu-DOTA-FD3 at 45 h (~1.11 MBq, n = 4) and 90 h (~1.11 MBq, n = 3) validated the prolonged enrichment of the probe at the tumor site. At the end of each probe imaging and radioactivity counting study, tumor tissues were fixed in paraformaldehyde tissue fixative. Briefly, sections of 10 μm were cut and stained for H&E following the standard protocols. IHC staining with a FAP antibody (ab227703, Abcam) was performed only on tumor tissues following accepted techniques.

[6] = microPET/CT imaging, ROI analysis, HT-1080 tumor models; type: in vivo, mice; details: nude (thymus-free), mouse, intravenous, 3 MBq, 30 min p.i.
Protocol: as §1, §2

[7] = microPET/CT imaging, ROI analysis, HT1080-FAP tumor models; type: in vivo, mice; details: nude (thymus-free), mouse, intravenous
Protocol: as §4
MicroPET imaging was performed on isoflurane-anesthetized mice injected intravenously via the lateral tail vein with around 3 MBq (2.5 nmol) of the radioligand at certain times. Regarding the FD1 blocking group, an excessive amount of unlabeled FD1 (200-fold) was simultaneously injected with [^68Ga]Ga-DOTA-FD1 into the tail vein of another batch of mice. Images were acquired using an IRIS PET/CT system (Inviscan Imaging Systems). PET data were reconstructed using a nonscatter-corrected 3D-ordered subset expectation […]/maximum a posteriori (OSEM3D/MAP) algorithm. The information was analyzed using OsiriX Lite software (Pixmeo SARL) and Inveon Research Workplace (Siemens Preclinical Solutions). The percentage of injected dose per gram of tissue (%ID/g, mean ± SD) was utilized to present the distribution of tracers in the ROI, encompassing tumor, heart, lung, liver, kidney, and muscle.

[8] = microPET/CT imaging, ROI analysis, BxPC-3 tumor models; type: in vivo, mice; details: nude (thymus-free), mouse, intravenous, 3 MBq, 1 h after tracer injection
Protocol: as §1, §2

[9] = Ex vivo biodistribution after imaging, HT-1080 tumor models; type: in vivo, mice; details: nude (thymus-free), mouse, intravenous, 3 MBq, total radioactivity, after imaging at 30 min p.i., read-out: tumor uptake (biodistribution study)
Protocol: A human pancreatic cancer cell line BxPC-3 and a murine pancreatic cancer cell Panc-02 were obtained from the American Type Culture Collection. The pancreatic cancer cell line T3M-4 was purchased by MeisenCTCC (Zhejiang, China). BxPC-3 and T3M-4 cell lines were grown in RPMI 1640 medium (Shanghai BasalMedia Technologies Co., LTD.) containing 10% FBS (GE Healthcare, Chicago, IL, USA) and 1% penicillin–streptomycin solution (Invitrogen). To culture the Panc-02 cell line, a medium called Dulbecco’s modified Eagle medium from Shanghai BasalMedia Technologies Co., LTD. was used, which consisted of 10% FBS. The cell line HT-1080 was grown in MEM medium (Shanghai BasalMedia Technologies Co., LTD.) supplemented with 10% FBS, 1% penicillin-streptomycin solution, and 1% nonessential amino acids (NEAA-11140050; Gibco). […]
After imaging collection and image reconstruction, samples from euthanized experimental mice, including blood and multiple significant organs, were harvested and weighed. The radioactivity in each collected tissue was counted using an automated gamma counter (Wizard 2480, PerkinElmer) and the accumulation of radioactivity in different tissues and organs was quantified and expressed as %ID/g (mean ± SD). […] At the end of each probe imaging and radioactivity counting study, tumor tissues were fixed in paraformaldehyde tissue fixative. […]

tissue uptake at 1 h [2]: 0.92 ± 0.22 %ID/g | SUV at 1 h ([3]; primary tumour lesions, 4 primary lesions, initial staging patients, 60 min after injection, read-out: median SUVmax of primary lesions): 8.86 SUV | SUV at 1 h ([3]; 15 lymph node metastases in 3 patients, read-out: median SUVmax of lymph node metastases): 5.6 SUV | Bone and visceral metastases Median SUVmax (range) ([4]; Patient 1, thyroid cancer, recurrence detection): 2.87 (2.52–4.45) | Lymph node metastases Median SUVmax (range) ([4]; Patient 3, esophagus cancer): 4.29 (4.02–4.57) | Primary tumor Median SUVmax ([4]; Patient 3, esophagus cancer): 7.64 | Lymph node metastases Median SUVmax (range) ([4]; Patient 4, NPC): 5.67 (4.14–7.76) | Primary tumor Median SUVmax ([4]; Patient 4, NPC): 5.27 | Primary tumor Median SUVmax ([4]; Patient 5, esophagus cancer): 10.07 | Primary tumor Median SUVmax ([4]; Patient 6, esophagus cancer): 13.42 | tissue uptake ([5]; 750 ug, HT1080-FAP tumor, co-injected excess unlabeled FD1 (750 μg), read-out: tumor uptake (biodistribution) upon FD1 blocking): 2.15 ± 0.58 %ID/g | tissue uptake ([5]; 3 MBq, HT1080-FAP tumor, without blocking, read-out: tumor uptake (biodistribution study)): 19.2 ± 6.51 %ID/g | tissue uptake ([5]; kidney, 750 ug, HT1080-FAP models, co-injected excess unlabeled FD1 (750 μg), read-out: kidney accumulation (biodistribution analysis) upon FD1 blocking): 30.3 ± 4.45 %ID/g | tissue uptake ([5]; kidney, 3 MBq, HT1080-FAP models, without blocking, read-out: kidney accumulation (biodistribution analysis)): 110 ± 27.1 %ID/g | tissue uptake at 0.5 h [6]: 1.97 ± 0.45 %ID/g | tissue uptake ([7]; 750 ug, HT1080-FAP tumor, co-injected excess unlabeled FD1 (750 μg), read-out: tumor uptake (ROI analysis) upon FD1 blocking): 2.63 ± 1.28 %ID/g | tissue uptake ([7]; 3 MBq, HT1080-FAP tumor, without blocking, read-out: tumor uptake (ROI analysis)): 8.85 ± 3.3 %ID/g | tissue uptake ([7]; kidney, 750 ug, HT1080-FAP models, co-injected excess unlabeled FD1 (750 μg), read-out: kidney accumulation (ROI analysis) upon FD1 blocking): 10.3 ± 1.67 %ID/g | tissue uptake ([7]; kidney, 3 MBq, HT1080-FAP models, without blocking, read-out: kidney accumulation (ROI analysis)): 40.6 ± 4.76 %ID/g | tissue uptake at 1 h [8]: 0.96 ± 0.07 %ID/g | tissue uptake at 0.5 h [9]: 1.02 ± 0.41 %ID/g
Structure (SMILES): CCCCCC(=O)N[C@H]1CSCc2cc(CSCCNC(=O)[C@H](CCCCN)NC(=O)[C@@H](NC(=O)[C@H](CCSC)NC(=O)CN3CCN(CC(=O)O)CCN(CC(=O)O)CCN(CC(=O)O)CC3)C(C)C)cc(c2)CSC[C@@H](C(=O)O)NC(=O)[C@H](Cc2ccccc2)NC(=O)[C@H](CCC(N)=O)NC(=O)[C@H]([C@@H](C)O)NC(=O)[C@@H]2CCCN2C(=O)[C@@H]2CCCN2C1=O [[^68Ga]Ga-DOTA-FD1, metal not drawn]
uptake in normal tissues and organs ([1]; healthy volunteers (n = 3), PET 60 min after injection): negligible uptake in normal tissues and organs except the kidneys | adverse events ([1]; healthy volunteers and patients, during the injection and at 4 h follow-up, 3.0 to 3.7 MBq/kg): No adverse events were observed
